The numbers were not newly measured in patent publication US20090048237A1 (priority 2007, published 2009), which cites them from elsewhere.

Read-outs that look alike come from different tables or passages of the source.

For series [1] the following is noted: 0.2 mg/kg sublingual versus 0.2 mg/kg nasal, children.
For series [2] the following is noted: human, in vivo.
Experiment in series [3]: not given
This is another data set of the same source.

The conditions of series [4]: in vivo.
The conditions of series [5]: sublingual Halcion tablets.
For series [6] the following is noted: 125 mcg and 250 mcg.
The conditions of series [7]: children.
For series [8] the following is noted: 200 mcg sublingual.

As for `Cc1ncc2n1-c1ccc(Cl)cc1C(c1ccccc1F)=NC2` [Midazolam, 8-chloro-6-(2-fluorophenyl)-1-methyl-4H-imidazo[1,5-a][1,4]benzodiazepine], the “midazolam level 30 min after premedication” value in series [1] is “statistically significantly higher than in the nasal group”. In addition, the “children who had not previously cried that cried on administration” value in series [2] is listed as 71%. Further, in series [2], the “patients who experienced nasal irritation” value is given as 20. Besides, the “patients with complete drug dissolution within 10 min” value (7.5 mg sublingual tablet) is 72%. Besides, the sedation scores entry (7.5 mg sublingual versus oral, 30 and 60 min after administration) was “higher than in the oral group”. In addition, the “children with satisfactory sedation at 15 min after administration” value in [3] (0.25 mg/kg under the tongue) is on record as 28%; in series [3] (0.5 mg/kg under the tongue), 52%; in [3] (0.75 mg/kg under the tongue), 64%.
As for `Cc1nnc2n1-c1ccc(Cl)cc1C(c1ccccc1Cl)=NC2` [Triazolam, 8-chloro-6-(o-chlorophenyl)-1-methyl-4H-s-triazolo-[4,3-alpha][1,4]benzodiazepine], the tablet dissolution time in series [4] is no more than 90 s. Also, the “tablet dissolution after dosing” value in series [5] is 2 to 3 min. Further, in series [6], the “sedation and psychomotor performance, elderly versus young persons at the same dose” value was “greater degree of sedation and greater impairment of psychomotor performance”. Moreover, the “average sublingual tablet dissolution” value in series [7] was 4 min. In addition, the “depth of sedation versus 10 mg oral diazepam” value in [8] is reported as “deeper sedation”. Further, the “time after administration at which sedation developed” value in series [8] (61-70 year old patients) is 60 to 90 min.
